SMILES strings stand for the structures.

Assay [1] relates to HBV (extracellular HBsAg) in HBV-infected PHH. As to the kind of experiment: Cryopreserved primary human hepatocytes (PHH) HBV infection assay. The assay is classed as cell-based. The conditions noted are these: Hepatitis B virus, Hepatocyte, 216 h, 9 days post-compound treatment, extracellular HBsAg by CLIA. As to the method: This assay is used to confirm the anti-HBV effect of the compounds in HBV PHH infection assay. Cryopreserved PHH (BioreclamationIVT, Lot YJM) was thawed at 37° C. and gently transferred into pre-warmed InVitroGRO HT medium (BioreclamationIVT, Cat. S03317). The mixture was centrifuged at 70 relative centrifugal force (RCF) for 3 minutes at RT, and the supernatant was discarded. Pre-warmed InVitroGRO CP medium (BioreclamationIVT, Cat #S03316) was added to the cell pellet to gently re-suspend cells. The cells were seeded at the density of 5.8×10^4 cells per well to collagen I coated 96-well plate (Gibco, Cat. A1142803) with the InVitroGRO CP medium. All plates were incubated at 37° C. with 5% CO2 and 85% humidity.
At 20 hours after plating, the medium was changed to PHH culture medium (Dulbecco's Modified Eagle Medium (DMEM)/F12 (1:1) (Gibco, Cat. 11320-033), 10% fetal bovine serum (Gibco Cat. 10099141), 100 U/mL penicillin, 100 μg/mL streptomycin (Gibco, Cat. 151401-122), 5 ng/mL human epidermal growth factor (Invitrogen Cat. PHG0311L), 20 ng/mL dexamethasone (Sigma, Cat. D4902) and 250 ng/mL human recombinant insulin (Gibco, Cat. 12585-014)). And the cells were incubated at 37° C. with 5% CO2 and 85% humidity for 4 hours. The medium was then changed to pre-warmed PHH culture medium containing 4% polyethylene glycol (PEG) MW8000 (Sigma, Cat. P1458-50ML) and 1% DMSO (Sigma, Cat. D2650). 5.8×10^6 genomic equivalents of HBV were added into the medium.
At 24 hours post-infection, the cells were gently washed with PBS and refreshed with PHH culture medium supplemented with 1% DMSO, and 0.25 mg/mL Matrix gel (Corning, Cat. 356237) at 200 μL per well. All plates were immediately placed in at 37° C. CO2 incubator. 24 hours later, serial dilutions of compounds made with DMSO were further diluted with the same culture medium (PHH culture medium supplemented with 1% DMSO and 0.25 mg/mL Matrix gel as described above) before they were added to the cells to reach desired final compound concentrations and 1% DMSO concentration. The medium containing the compounds were refreshed every three days.
At 9 days post-compound treatment, extracellular HBsAg level were measured with Chemiluminescence Immuno Assay (CLIA) kit (Autobio, HBsAg Quantitative CLIA). Extracellular HBV DNA was extracted by MagNA Pure 96 system (Roche) and then determined by quantitative PCR with the following primers and probe: […]
HBsAg IC50 and HBV DNA IC50 values were derived from the dose-response curve using 4 parameter logistic curve fit method.

The test system of assay [2] is HBV cccDNA (HBeAg level) in HepDES19 cells. As to the kind of experiment: Engineered HepDES19 primary screen assay (HBeAg as surrogate marker for cccDNA). The assay is classed as cell-based. The conditions noted are these: Hepatitis B virus, HepDES19, 120 h, read-out: IC50 (HBeAg level, HepDES19 primary screen assay). The text has this:
The assay was employed to screen for novel cccDNA inhibitors. HepDES19 is a cccDNA-producing cell line. In this cell line, HBeAg in the cell culture supernatant as surrogate marker, as HBeAg production depends on cccDNA level and activity. HepDES19 is an engineered cell line which contains a 1.1 unit length HBV genome, and pgRNA transcription from the transgene is controlled by Tetracycline (Tet). In the absence of Tet, pgRNA transcription will be induced, but HBV e antigen (HBeAg) could not be produced from this pgRNA due to very short leader sequence before the HBeAg start codon and the start codon is disrupted. Only after cccDNA is formed, the missing leader sequence and start codon mutation would be restored from the 3′-terminal redundancy of pgRNA, and then HBeAg could be synthesized. Therefore, HBeAg could be used as a surrogate marker for cccDNA (Zhou, T. et al., Antiviral Res.(2006), 72(2), 116-124; Guo, H. et al., J. Virol. (2007), 81(22), 12472-12484).
HepDES19 cells were seeded at 2×10^6 cells per T150 flask and cultured with the culture medium (Dulbecco's Modified Eagle Medium: Nutrient Mixture F-12 [DMEM-F12, Gibco Cat. 11320-82], 10% Fetal Bovine Serum [FBS, Clontech Cat. 631101], 0.1 mM Non-Essential Amino Acids Solution [NEAA, Gibco Cat. 11140-050], 50 μg/mL Penicillin-Streptomycin [PS, Invitrogen Cat. 15140-163], 500 μg/mL Geneticin [G418, Invitrogen Cat. 10131-027]) containing 3 μg/mL Tet (Sigma, Cat. 87128) for 5 days. Cells were then seeded at 4×10^6 cells per T150 in the same culture medium as described above in the absence of Tet for 8 days. Cells were then harvested and frozen at density of 2×10^6 cells per mL. For compound testing, the frozen cells were thawed and seeded into 96-well plates at a density of 6×10^4 cells per well. At 24 hrs after seeding, half log serial dilutions of compounds made with Dimethyl sulfoxide (DMSO, Sigma, Cat. D2650) were further diluted with the same culture medium as described above before they were added to the cells to reach desired final compound concentrations and 1% DMSO concentration. Plates were then incubated at 37° C. for another 5 days before measurement of HBeAg level and cell viability. Intracellular HBeAg level were measured with enzyme-linked immunosorbent assay (ELISA) kit (Shanghai Kehua Diagnostic Medical Products Co., Ltd). Cell viability was assessed using Cell Counting Kit-8 (Donjindo, Cat. CK04-20). IC50 values were derived from the dose-response curve using 4 parameter logistic curve fit method.
The compounds of the present invention were tested for their capacity to inhibit extracellular HBeAg level as described herein.

Take `COc1ccc(-c2ccc3cccc(Cl)c3n2)cc1C(F)(F)F` [Example 3, 8-chloro-2-[4-methoxy-3-(trifluoromethyl)phenyl]quinoline]: the IC50 in assay [1] came to 11.3 µM; in assay [2] it was 141 nM. As for `N#Cc1cc(OCCO[C@H]2C[C@@H](C(=O)O)C2)ccc1-c1ccc2cccc(Cl)c2n1` [Example 7, Cis-3-[2-[4-(8-chloro-2-quinolyl)-3-cyano-phenoxy]ethoxy]cyclobutanecarboxylic acid], in assay [2], the IC50 was 18400 nM. In the case of `COc1cc(-c2ccc(OCc3cccc(C(=O)O)c3)cc2)nc2c(Cl)cccc12` [Example 14, 3-[[4-(8-chloro-4-methoxy-2-quinolyl)phenoxy]methyl]benzoic acid], the IC50 in assay [2] was found to be 1860 nM.

`O=C(O)[C@H]1C[C@@H](OCCOc2ccc(-c3ccc4cccc(Cl)c4n3)cc2)C1` [Example 1, Cis-3-[2-[4-(8-chloro-2-quinolyl)phenoxy]ethoxy]cyclobutanecarboxylic acid]: the IC50 was 0.015 µM in assay [1] and 8 nM in assay [2].

`O=C(O)c1cc(-c2cccc(Br)c2)nc2cc(C(F)(F)F)ccc12` [Example 10, 2-(3-bromophenyl)-7-(trifluoromethyl)quinoline-4-carboxylic acid]: in assay [2], the IC50 was determined as 19500 nM. Turning to `O=C(O)C1CC(OCCOc2ccc(-c3cc(C(F)(F)F)c4cccc(Cl)c4n3)cc2)C1` (stereo not shown) [Example 12, 3-[2-[4-[8-chloro-4-(trifluoromethyl)-2-quinolyl]phenoxy]ethoxy]cyclobutanecarboxylic acid], the concentration for half-maximal inhibition (IC50) in assay [1] is 3.31 µM; in assay [2], 515 nM. As for `O=C(O)C1CC(OCCOc2cc3c(Cl)ccc(Cl)c3nc2-c2ccc(O)cc2)C1` (stereo not shown) [Example 16, 3-[2-[[5,8-dichloro-2-(4-hydroxyphenyl)-3-quinolyl]oxy]ethoxy]cyclobutanecarboxlic acid], in assay [2], the half-inhibitory concentration (IC50) turned out to be 3620 nM.

For the compound `O=C(O)COCCOc1ccc(-c2cc(C(F)(F)F)c3cccc(Cl)c3n2)cc1` [Example 13, 2-[2-[4-[8-chloro-4-(trifluoromethyl)-2-quinolyl]phenoxy]ethoxy]acetic acid], the IC50 in assay [1] came to 5.5 µM; in assay [2], 1670 nM. Consider `O=C(O)[C@H]1C[C@@H](OCCOc2ccc(-c3ccc4cccc(Cl)c4n3)cc2C(F)(F)F)C1` [Example 5, Cis-3-[2-[4-(8-chloro-2-quinolyl)-2-(trifluoromethyl)phenoxy]ethoxy]cyclobutanecarboxylic acid], for which the IC50 was determined as 2.95 µM in assay [1] and 3910 nM in assay [2].

With `O=C(O)COCCOc1ccc(-c2ccc3cccc(Cl)c3n2)cc1` [Example 2, 2-[2-[4-(8-chloro-2-quinolyl)phenoxy]ethoxy]acetic acid], the IC50 is 0.97 µM in assay [1] and 233 nM in assay [2]. Consider `OCCOc1ccc(-c2ccc3ccc(C(F)(F)F)cc3n2)cc1` [Example 8, 2-[4-[7-(trifluoromethyl)-2-quinolyl]phenoxy]ethanol], for which the IC50 in assay [2] was determined as 18500 nM. With `COC(=O)[C@H]1C[C@@H](OCCOc2ccc(-c3ccc4ccc(C(F)(F)F)cc4n3)cc2)C1` [Example 9, Cis-methyl 3-[2-[4-[7-(trifluoromethyl)-2-quinolyl]phenoxy]ethoxy]cyclobutanecarboxylate], the IC50 in assay [2] turned out to be 17800 nM. Consider `Cc1cc(-c2cccc(Br)c2)nc2cc(C(F)(F)F)ccc12` [Example 11, 2-(3-bromophenyl)-4-methyl-7-(trifluoromethyl)quinoline], for which the IC50 is 1.66 µM in assay [1] and 2070 nM in assay [2].

As for `COc1cc2cccc(Cl)c2nc1-c1ccc(OCCO[C@H]2C[C@@H](C(=O)O)C2)cc1` [Example 15, Cis-3-[2-[4-(8-chloro-3-methoxy-2-quinolyl)phenoxy]ethoxy]cyclobutanecarboxylic acid], the IC50 in assay [2] amounted to 2530 nM. On to `OCCOc1ccc(-c2ccc3cccc(Cl)c3n2)cc1C(F)(F)F` [Example 4, 2-[4-(8-chloro-2-quinolyl)-2-(trifluoromethyl)phenoxy]ethanol], for which the IC50 in assay [1] turned out to be 6.77 µM; in assay [2] it was 2120 nM. In the same order, the values of `O=C(O)COCCOc1ccc(-c2ccc3cccc(Cl)c3n2)cc1C(F)(F)F` [Example 6, 2-[2-[4-(8-chloro-2-quinolyl)-2-(trifluoromethyl)phenoxy]ethoxy]acetic acid] are 8.35 µM and 537 nM.
